Results taken from US9296720B2, “Carboxamide-substituted heteroaryl-pyrazoles and the use thereof” (AiCuris GmbH & Co. KG, priority 2011, dated 2016).
Read-outs that look alike come from different tables or passages of the source.

How the values were obtained:
Format in all cases: cell-based
HIV-1NL4-3 Wild Type = assay: Luminescence reduction assay, MT4 cells infected with HIV-1NL4-3 luciferase reporter virus, wild type; conditions: 2% FCS
From the text: (§1) For this assay, HIV-1NL4-3 reporter viruses are used, which carry the luciferase164 gene (lu164) instead of the nef gene. The viruses are generated by transfection of 293T cells with the corresponding proviral pNL4-3 plasmid (Lipofectamine Reagent, Invitrogen, Karlsruhe, Germany). Starting from the proviral plasmid-DNA, viruses with defined resistance mutations in the reverse transcriptase gene are produced with the “QuikChange II XL Site-Directed Mutagenesis Kit” (Stratagene, Cedar Creek, Tex., USA). Among other things, the following mutations are generated: A98G, A98G-K103N-V108I, A98S, F227C, F227L, G190A, G190S, K101E, K101Q-K103N, K103N, K103N-F227L, K103N-G190A, K103N-G190S, K103N-M230L, K103N-N348I, K103N-P225H, K103N-V108I, K103N-V108I-P225H, K103N-V179F-Y181C, K103N-Y181C, K103N-Y181C-G190A, L100I, L100I-K103N, L100I-K103N-V179I-Y181C, L100I-K103N-Y181C, L234I, N348I, P225H, P236L, V106A, V106A-E138K, V106A-F227C, V106A-F227L, V106I, V106I-Y188L, V106M, V108I, V179F-Y181C, V179I, V179I-Y181C, Y181C, Y181C-G190A, Y181C-M230L, Y181I, Y188L. MT4 cells infected with these reporter viruses (NIH AIDS Research and Reference Reagent Program) secrete luciferase into the medium, which makes possible the luminometric quantification of the virus replication.
(§2) For the batch of a 96-well MTP, 3 million MT4 cells are pelletized, suspended in 1 ml of RPMI 1640 medium without phenol red (Invitrogen, Karlsruhe, Germany)/10% FCS/2 mmol of L-glutamine/1% Pen/Strep (Invitrogen, Karlsruhe, Germany), and incubated together with a suitable amount of the corresponding HIV-1NL4-3 reporter virus for 2 hours at 37° C. (pellet infection). Non-adsorbed viruses are then washed out with PBS, the infected cells are pelletized again, and suspended in 8 ml of RPM 11640 medium without phenol red/2% or 10% FCS/2 mmol of L-glutamine/1% Pen/Strep. Therefrom, 80 μl per well is pipetted into a white 96-well MTP in 20 μl of test substance in a suitable dilution. In order to avoid boundary effects, the edge wells of the MTP are not used for substance dilutions. The second vertical row of the MTP contains only infected cells (virus control), and the eleventh vertical row contains only non-infected cells (cell control) in each case in RPMI 1640 medium without phenol red/2% or 10% FCS/2 mmol of L-glutamine/1% Pen/Strep. The other wells of the MTP contain the compounds according to the invention in different concentrations starting from the third vertical row, from which dilution of the test substances is carried out 3^7 times in three steps up to the tenth vertical row. The test substances are dissolved in DMSO, whereby the DMSO final concentration in the test batch is ultimately 1%. The test batches are incubated for 5 days at 37° C./5% CO2, and are luminometrically evaluated after the addition of 15 μl of Lu164-buffer (65 mmol of NaCl, 300 mmol of MES, pH 5.8, 5 mmol of glutathione and 1:200 coelenterazine (5 mg/ml in 30 μM of glutathione/DMSO) (P.J.K. GmbH, Kleinblittersdorf, Germany)). In the virus control, the resulting values are in the range of 1 million RLUs (relative light units), and in the cell control, the resulting values are 300 to 400 RLUs. The EC50 values of the test substances are determined as the concentration of the treated infected cells, in which the virus replication measured in RLUs is 50% of the untreated infected cells.

HIV-1NL4-3 K103N-Y181C = assay: Luminescence reduction assay, MT4 cells infected with HIV-1NL4-3 luciferase reporter virus, RT mutant K103N-Y181C
From the text: as §1, §2

HIV-1LAI Wild Type = assay: AlamarBlue viability assay, HIV-1LAI-infected MT4 cells; conditions: 10% FCS
Method: For the batch of a 96-well MTP, 3 million PBLs are pelletized, suspended in 1 ml of RPMI 1640 medium/10% FCS/2 mmol of L-glutamine/1% Pen/Strep, and incubated together with a suitable amount of HIV-1LA1 (NIH AIDS Research & Reference Reagent Program, Germantown, USA) for 2 hours at 37° C. (pellet infection). Non-adsorbed viruses are then washed out with PBS, the infected cells are pelletized again, and suspended in 18 ml of RPMI 1640 medium/10% FCS/2 mmol of L-glutamine/1% Pen/Strep/interleukin-2 (40 U/ml). Therefrom, 180 μl per well is pipetted into a white 96-well MTP in 20 μl of test substance in a suitable dilution. As an alternative, after preparation of the substance dilutions, the HIV is added by pipetting in the MTP together with the cells and is no longer washed out (supernatant infection). In order to avoid boundary effects, the edge wells of the MTP are not used for substance dilutions. The second vertical row of the MTP contains only infected cells (virus control), and the eleventh vertical row contains only non-infected cells (cell control) in each case in RPMI 1640 medium/10% FCS/2 mmol of L-glutamine/1% Pen/Strep/interleukin-2 (40 U/ml). The other wells of the MTP contain the compounds according to the invention in different concentrations starting from the third vertical row, from which dilution of the test substances is carried out 3^7 times in three steps up to the tenth vertical row. The test substances are dissolved in DMSO, whereby the DMSO final concentration in the test batch is ultimately 1%. The test batches are incubated at 37° C./5% CO2. After 5 and 7 days, in each case 50 μl of cell-free supernatant is drawn off from each well in order to determine the amount of p24 contained by means of p24 ELISA (HIV-1 p24^CA Antigen Capture Assay Kit, NCI-Frederick Cancer Research and Development Center, Frederick, USA). From the resulting values of the photometric analysis (450/620 nm), the EC50 values of the test substances are determined as the concentration of the treated infected cells, in which the amount of p24 is 50% of the untreated infected cells.
As an alternative, MT4 cells are used for testing test substances instead of PBLs. HIV-1LA1-infected MT4 cells (MOI 0.01, supernatant infection) are incubated according to the above-described pattern in RPMI 1640 medium with 2% or 10% FCS/2 mmol of L-glutamine/1% Pen/Strep in the presence of test substances for 5 days at 37° C./5% CO2 (20 μl of substance dilution and 80 μl of cells/virus per well). Then, 10 μl of AlamarBlue (Invitrogen, Karlsruhe, Germany) is added to each well, and MTPs are incubated for 3 hours at 37° C., before the fluorimetric analysis is done (544/590 nm). The resulting values are approximately 30,000 in the case of untreated, non-infected cells, and approximately 6,000 in the case of untreated infected cells. In the low concentration range, the EC50 values of the test substances are determined as the concentration of the treated infected cells, in which the fluorescence is 50% of the untreated non-infected cells (in each case relative to the values of the untreated infected cells). In addition, in the high concentration range, the CC50 values of the test substances are determined as the concentration of the treated infected cells, in which the fluorescence is 50% of the untreated, non-infected cells (in each case relative to the values of the untreated infected cells).

[1] = Human immunodeficiency virus 1, MT4, MT4 cells
[2] = Human immunodeficiency virus 1, MT4, read-out: EC50 (μM) MT4 Cells HIV-1NL4-3 K103N-Y181C 2% FCS, MT4 cells, HIV-1NL4-3 K103N-Y181C, 2% FCS

SMILES | EC50 (HIV-1NL4-3 Wild Type; [1]) | EC50 (HIV-1NL4-3 K103N-Y181C; [2]) | EC50 (HIV-1LAI Wild Type; [1]) | EC50 (HIV-1NL4-3 Wild Type; MT4 cells) | EC50 (HIV-1NL4-3 K103N-Y181C; read-out: EC50 (μM) MT4 Cells HIV-1NL4-3 K103N-Y181C 2% FCS, MT4 cells, HIV-1NL4-3 K103N-Y181C, 2% FCS) | EC50 (HIV-1LAI Wild Type; MT4 cells)
O=C1CN(C(=O)c2cc(-c3cncc(F)c3)n(-c3ccc(F)c(Cl)c3)n2)CN1 [Example 98, 1-{[1-(3-Chloro-4-fluorophenyl)-5-(5-fluoropyridin-3-yl)-1H-pyrazol-3-yl]carbonyl}imidazolidin-4-one] | 0.018 µM | 0.032 µM | 0.056 µM | – | – | –
Cc1ccc(-n2nc(C(=O)N3CNC(=O)C3)cc2-c2cc(F)cc(Cl)c2)cn1 [Example 11, 1-{[5-(3-Chloro-5-fluorophenyl)-1-(6-methylpyridin-3-yl)-1H-pyrazol-3-yl]carbonyl}imidazolidin-4-one] | 0.007 µM | 0.061 µM | 0.057 µM | – | – | –
O=C1CN(C(=O)c2cc(-c3cncc(C(F)(F)F)c3)n(-c3ccc(F)c(Cl)c3)n2)CCN1 [Example 107] | 0.299 µM | 1.28 µM | 0.263 µM | – | – | –
O=C(c1cc(-c2cc(Br)cc(OC(F)(F)F)c2)n(-c2ccc(Cl)nc2)n1)N1CC[S+]([O-])C1 (racemic) [Example 37, {5-[3-Bromo-5-(trifluoromethoxy)phenyl]-1-(6-chloropyridin-3-yl)-1H-pyrazol-3-yl}(1-oxido-1,3-thiazolidin-3-yl)methanone] | 0.004 µM | 0.005 µM | 2.32 µM | – | – | –
O=C1CN(C(=O)c2cc(-c3cc(F)cc(Cl)c3)n(-c3ccnc(Cl)c3)n2)CCN1 [Example 15, 4-{[5-(3-Chloro-5-fluorophenyl)-1-(2-chloropyridin-4-yl)-1H-pyrazol-3-yl]carbonyl}piperazin-2-one] | 0.018 µM | 0.452 µM | 0.151 µM | – | – | –
O=C1CN(C(=O)c2cc(-c3cc(Br)cc(OC(F)(F)F)c3)n(-c3cncc(Cl)c3)n2)CCN1 [Example 43, 4-({5-[3-Bromo-5-(trifluoromethoxy)phenyl]-1-(5-chloropyridin-3-yl)-1H-pyrazol-3-yl}carbonyl)piperazin-2-one] | 0.103 µM | 0.529 µM | 0.751 µM | – | – | –
O=C(c1cc(-c2cc(F)cc(OCC(F)(F)F)c2)n(-c2cccnc2)n1)N1CC[S+]([O-])C1 (racemic) [Example 73, {5-[3-Fluoro-5-(2,2,2-trifluoroethoxy)phenyl]-1-(pyridin-3-yl)-1H-pyrazol-3-yl}(1-oxido-1,3-thiazolidin-3-yl)methanone] | 0.018 µM | 0.951 µM | 0.243 µM | – | – | –
O=C(c1cc(-c2cc(F)cc(OC(F)(F)F)c2)n(-c2ccnc(Cl)c2)n1)N1CCSC1 [Example 104, {1-(2-Chloropyridin-4-yl)-5-[3-fluoro-5-(trifluoromethoxy)phenyl]-1H-pyrazol-3-yl}(1,3-thiazolidin-3-yl)methanone] | 0.58 µM | ≥ 3.3 µM | > 3.3 µM | – | – | –
O=C(c1cc(-c2cc(F)cc(OC(F)(F)F)c2)n(-c2cccnc2)n1)N1CCOCC1 [Example 61, {5-[3-Fluoro-5-(trifluoromethoxy)phenyl]-1-(pyridin-3-yl)-1H-pyrazol-3-yl}(morpholin-4-yl)methanone] | 0.092 µM | 0.767 µM | 0.6 µM | – | – | –
COc1cc(Br)cc(-c2cc(C(=O)N3CCNC(=O)C3)nn2-c2ccnc(Cl)c2)c1 [Example 97, 4-{[5-(3-Bromo-5-methoxyphenyl)-1-(2-chloropyridin-4-yl)-1H-pyrazol-3-yl]carbonyl}piperazin-2-one] | 0.013 µM | 0.116 µM | 0.068 µM | – | – | –
O=C(c1cc(-c2cc(F)cc(OC(F)(F)F)c2)n(-c2cccnc2)n1)N1CCSC1 [Example 59, {5-[3-Fluoro-5-(trifluoromethoxy)phenyl]-1-(pyridin-3-yl)-1H-pyrazol-3-yl}(1,3-thiazolidin-3-yl)methanone] | 0.256 µM | 1.11 µM | 2.78 µM | – | – | –
O=C(c1cc(-c2cc(Br)cc(OC(F)(F)F)c2)n(-c2cccnc2)n1)N1CCSC1 [Example 30, (5-[3-Bromo-5-(trifluoromethoxy)phenyl]-1-(pyridin-3-yl)-1H-pyrazol-3-yl) (1,3-thiazolidin-3-yl)methanone] | 0.033 µM | 0.181 µM | 0.794 µM | – | – | –
Cc1ccc(-n2nc(C(=O)N3CNC(=O)C3)cc2-c2cc(Br)cc(OC(F)(F)F)c2)cn1 [Example 46, 1-({5-[3-Bromo-5-(trifluoromethoxy)phenyl]-1-(6-methylpyridin-3-yl)-1H-pyrazol-3-yl}carbonyl)imidazolidin-4-one] | 0.007 µM | 0.007 µM | 0.097 µM | – | – | –
O=C(c1cc(-c2cc(Br)cc(OC(F)(F)F)c2)n(-c2cccnc2)n1)N1CC[S+]([O-])C1 (racemic) [Example 31-1, {5-[3-Bromo-5-(trifluoromethoxy)phenyl]-1-(pyridin-3-yl)-1H-pyrazol-3-yl}(1-oxido-1,3-thiazolidin-3-yl)methanone] | – | – | – | 0.084 µM | 0.981 µM | 0.82 µM
